One test has as its target NS4B-GFP (Hepatitis C virus genotype 1b, UniProt Q9WMX2). Type of test: binding, HCV.
For the next test, the target named is T1, GST-NS4B (Hepatitis C virus genotype 1b, UniProt Q9WMX2).
T1 construct: wild type NS4B and the four NBM mutants were fused in frame with N-terminal Glutathione-S Transferase (GST) tags and assayed; made in house; host or cells: E. coli BL21 (pDEST15)
T1 sequence (Q9WMX2 1712-1972 limits assumed): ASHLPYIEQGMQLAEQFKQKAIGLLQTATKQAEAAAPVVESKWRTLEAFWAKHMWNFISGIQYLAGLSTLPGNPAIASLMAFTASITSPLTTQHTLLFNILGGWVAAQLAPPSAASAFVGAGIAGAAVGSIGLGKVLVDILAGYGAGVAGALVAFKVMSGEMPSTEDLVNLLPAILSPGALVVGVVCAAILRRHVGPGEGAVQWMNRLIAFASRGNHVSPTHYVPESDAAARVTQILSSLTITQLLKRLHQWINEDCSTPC
The test can be described thus: RNA binding assay. Set-up: species or system HCV. The note with it: 5 mM nucleotide; compared with GTP-γ-S. As for the experimental part:
RNA binding assay. 1 μg of purified protein was incubated for an hour at 37° C. in a 50 μl reaction mixture containing ^32P-labeled in vitro transcribed HCV RNA (prepared by using Sca I-linearized Bart79I plasmid (wild type HCV replicon (3)) as template, T7 RNA polymerase, and Riboprobe®/Promega, according to the manufacturer's protocol), binding buffer (10 mM DTT, 10 mM Na HEPES (pH 7.4), 33 mM NaCl, 0.1 mM EDTA, 10 mM MgCl2) and 5 mM of either GTP-γ-S or GDP (Sigma). 50 μl of tRNA pre-coated glutathione-agarose beads (Sigma) were then added, followed by 1 hour incubation at 4° C. to allow binding of GST to the beads. Samples were then washed three times in the binding buffer (in the absence of nucleotides). Aliquots were finally subjected to liquid scintillation counting for measuring bound RNA. Control incubations performed with reaction mixture prepared as above but with omission of T7 RNA polymerase were run in parallel and used for background subtraction.

On to `Nc1nc2c(ncn2[C@@H]2O[C@H](COP(=O)(O)OP(=O)(O)OP(O)(O)=S)[C@@H](O)[C@H]2O)c(=O)[nH]1` [GTPγS], for which the “binding of labeled GTP in the presence of cold competitor nucleotide” value at NS4B-GFP is “progressively decreased”. As for `[N-]=[N+]=Nc1ccc(NP(=O)(O)OP(=O)(O)OP(=O)(O)OC[C@H]2O[C@@H](n3cnc4c(N)ncnc43)[C@H](O)[C@@H]2O)cc1` [ATP, ATP-γ4-azidoanilide], the “labeling of NS4B-GFP by 32P-labeled photoactivatable nucleotide” value on NS4B-GFP is “significantly less efficient than GTP binding”. Regarding `[N-]=[N+]=Nc1ccc(NP(=O)(O)OP(=O)(O)OP(=O)(O)OC[C@H]2O[C@@H](n3cnc4c(=O)[nH]c(N)nc43)[C@H](O)[C@@H]2O)cc1` [GTP, GTP-γ-4-azidoanilide], the “labeling of NS4B-GFP by 32P-labeled photoactivatable nucleotide” value on NS4B-GFP was “specifically labeled”. Regarding `Nc1nc2c(ncn2[C@@H]2O[C@H](COP(=O)(O)OP(=O)(O)O)[C@@H](O)[C@H]2O)c(=O)[nH]1` [GDP], the “HCV RNA binding of GST-NS4B in the presence of guanyl nucleotide” value on GST-NS4B is given as “dramatically increased”.

The values above are taken from patent US7582428B2, “Methods and compositions for identifying anti-HCV agents” (priority 2003, dated 2009).
